Assay results reported in US11186598B2, “Radioactive phospholipid metal chelates for cancer imaging and therapy” (Wisconsin Alumni Research Foundation, priority 2016, dated 2021).

Tested on: flank U87 tumors
Assay: MRI comparison of Gd-DO3A-404 and DOTAREM in mice with flank U87 tumors (Example 5)
Type: in vivo, mouse
Conditions: as compared to Gd-DO3A-404
Text: To verify that uptake and retention was due to targeting of the “404” moiety, we directly compared the uptake of Gd-DO3A-404 with that of DOTA-chelated Gd^3+ (DOTAREM®) in an identical tumor model (mice with flank U87 tumors) and imaging scenario, using the same number of moles of each.
We the quantified the tumor to muscle ratio and compare it to baseline scans.

## CNC[C@H](O)[C@@H](O)[C@H](O)[C@H](O)CO.O=C([O-])CN1CCN(CC(=O)[O-])CCN(CC(=O)O)CCN(CC(=O)[O-])CC1.[Gd+3] [DOTAREM®]
  tumor to muscle ratio compared to baseline scans (uptake): less striking, and significant only at a couple of early time points
